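1) Cells in 96-well plates. 2) Compound, 48 h, 5 concentrations. 3) Linear interpolation between surrounding doses. 4) Unreached endpoint = highest concentration. TGI: total growth inhibition.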 Where a SMILES comes first, the peptide text is derived from it. The star is where a group is joined. Boc = CC(C)(C)OC(=O)*
How the values were obtained:
Test in all cases: inhibition of tumour cell growth, NCI panel, 48 h
[1] = system: KM12 colon
[2] = system: K-562 leukemia
[3] = system: SF-268 CNS
[4] = system: 786-0 renal
[5] = system: COLO 205 colon
[6] = system: SK-OV-3 ovarian
[7] = system: EKVX NSCLC
[8] = system: MDA-MB-231 breast
[9] = system: SW-620 colon
[10] = system: HOP-62 NSCLC
[11] = system: HL-60(TB) leukemia
[12] = system: UO-31 renal
[13] = system: OVCAR-8 ovarian
[14] = system: M14 melanoma
[15] = system: MDA-N
[16] = system: CAKI-1 renal
[17] = system: RPMI-8226 leukemia
[18] = system: HCT-116 colon
[19] = system: CCRF-CEM leukemia
[20] = system: UACC-257 melanoma
[21] = system: DU-145 prostate
[22] = system: IGROV1 ovarian
[23] = system: HCT-15 colon
[24] = system: T-47D breast
[25] = system: SK-MEL-28 melanoma
[26] = system: UACC-62 melanoma
[27] = system: OVCAR-5 ovarian
[28] = system: SK-MEL-2 melanoma
[29] = system: SK-MEL-5 melanoma
[30] = system: NCI-H460 lung
[31] = system: HT29 colon
[32] = system: A549 NSCLC
[33] = system: SF-539 CNS
[34] = system: SF-295 CNS
[35] = system: SNB-75 CNS
[36] = system: TK-10 renal
[37] = system: RXF 393 renal
[38] = system: MDA-MB-435
[39] = system: HCC-2998 colon
[40] = system: MCF7 breast
[41] = system: U251 CNS
[42] = system: SNB-19 CNS
[43] = system: HS 578T breast
[44] = system: OVCAR-4 ovarian
[45] = system: SN12C renal
[46] = system: PC-3 prostate
[47] = system: MOLT-4 leukemia
[48] = system: NCI/ADR-RES ovarian
[49] = system: SR leukemia
[50] = system: ACHN renal
[51] = system: BT-549 breast
[52] = system: MALME-3M melanoma
[53] = system: NCI-H226 lung
[54] = system: NCI-H522 lung
[55] = system: LOX IMVI melanoma
[56] = system: OVCAR-3 ovarian
[57] = system: NCI-H23 lung

Measured: TGI

C[C@@H]1C(=O)O[C@@H]2C[C@@]1(C)[C@@H]1C(=O)C3(O)OC14C2(C)OC(=O)[C@@]4(O)CCC1C3C(O)C=C2CC=CC(=O)[C@@]21C (some centres not stated)
40.7 µM: [19]
37.8 µM: [42]
54.2 µM: [35]
48.2 µM: [18]
91 µM: [31]
57.1 µM: [47]
62.9 µM: [28]
71.1 µM: [1]
40.8 µM: [11]
61.3 µM: [17]
90.8 µM: [14]
87.9 µM: [12]
53.5 µM: [33]
83.7 µM: [34]
32.8 µM: [37]
54.4 µM: [25]
47.8 µM: [49]
67.9 µM: [27]
50.7 µM: [43]
79.4 µM: [38]
not listed: [51] | [52] | [53] | [54] | [55] | [56] | [57]
> 100 µM: all other assays above

CCOC(=O)C12C3CCC1C2C(=O)C3 (configuration not stated)
not listed: [11] | [24] | [43]
> 100 µM: all other assays above

COC(=O)C(Cc1c[nH]c2ccccc12)NC(=O)C(Cc1c[nH]c2ccccc12)NC(=O)C(Cc1c[nH]c2ccccc12)NC(=O)C(Cc1c[nH]c2ccccc12)NC(=O)C(Cc1c[nH]c2ccccc12)NC(=O)OC(C)(C)C (configuration not stated) (Boc-WWWWW-OMe; configuration not given here)
56.5 µM: [29]
81.6 µM: [11]
not listed: [1] | [5] | [6] | [7] | [33] | [34] | [37] | [43] | [48]
> 100 µM: all other assays above
